Measured values from patent publication US20070224301A1, “Compounds from an extract of Artemisia and methods for treating disorders” (priority 2006, published 2007).
Each block holds one compound with its values, some of them ahead of it.

Columns and labels:
[1] = biological target: T1, human recombinant ALR2 enzyme (Homo sapiens, UniProt P15121); test: ALR2 enzyme assay (decrease in NADPH absorbance at 340 nm); type: biochemical; settings: for ALR2 inhibitory activity (in words, compared with quercitrin): 3.75 μg/ml where stated
T1 construct: purchased Wako Chemicals USA Inc
Description: Human recombinant ALR2 enzyme was purchased from Wako Chemicals USA Inc. Enzyme activity was measured at each step of purification of the extract, by monitoring the decrease in NADPH absorbance at a wavelength of 340 nm (Nishimura et al., Purification and characterization of recombinant aldose reducatse expressed in baculovirus system. Biochim. Biophys. acta. pp. 1078-1171 (1991)), using a spectrophotometer. One hundred micro liters of the reaction mixture contained 100 mM sodium phosphate buffer (pH 6.2), 0.15 mM NADPH, 10 mM DL-Glyceraldehyde and 1 mU of human recombinant ALR2 enzyme. The samples were prepared in 10% DMSO and the final concentration of the samples or the positive control quercitrin was 3.75 μg/ml. The reaction was initiated by adding the enzyme and the change in NADPH absorbance was monitored over seven minutes.

PTP-1B mRNA = test: Quantitative real time PCR for PTP-1B gene expression; type: cell-based; settings: skeletal muscle cells, 20 μg/ml of media
Description: Cells were incubated overnight (16 hours) with test substance (extract, fractions or pure compounds) at 20 μg/ml of media and harvested from the culture treatments at the designated time points. After extraction and quantification of RNA, quantitative real time PCR (qPCR) analysis was carried out using Taqman® one-step RT-PCR Master Mix (Applied Biosystems, Branchburg, N.J.). 20 ng of total RNA were added per 50 μl reaction with sequence-specific primers (200 nM) and Taqman® probes (200 nM) as indicated here, PTP-1B probe; 5′FAM d(AGTGATGGAGAAAGGTT)BHQ-1 3′. PTP-1B forward primer; 5′ d([…])3′ and PTP-1B reverse primer; 5′ d([…])3′. Primers and probes were designed by and purchased from Applied Biosystems. qPCR assays were carried out in triplicate on an ABI Prism 7700 sequence detection system. […] The threshold was set above the non-template control background and within the linear phase of target gene amplification to calculate the cycle number at which the transcript was detected (denoted CT). Gene expression values were calculated based on the standard curve of each target gene (RNA of control cells with two-fold serial dilutions from 200 ng to 3.125 ng) and normalized by the reference housekeeping gene β-Actin (1). Results were expressed as percentage change of control (Applied Biosystems (2001) Applied Biosystems User Bulletin Number 2, Foster City, Calif.).

PEPCK gene expression = test: PEPCK gene inhibition assay (Dex/cAMP-induced, qPCR) in H4IIE hepatoma cells; type: cell-based, rat; settings: 25 μg/ml
Description: H4IIE hepatoma cells (ATCC CRL-1600) were plated in 24-well tissue culture plates (Greiner Bio One) and were grown to confluence in Dulbecco's modified Eagle's medium (DMEM) containing 2.5% (v/v) newborn calf serum and 2.5% (v/v) fetal calf serum. Cells were treated for 8 hours with 500 nM dexamethasone and 0.1 mM cAMP (Dex/cAMP, both Sigma) to induce PEPCK gene expression and different concentrations or volumes of each of the tested compounds, plant extract or […] of Insulin. The fractions were tested at 50 μg/ml of media and the compounds were tested at the doses of 2.5 μg/ml, 5 μg/ml and 10 μg/ml and 25 μg/ml. Three wells were allocated for each treatment as well as for a negative control (untreated cells).
Total RNA was extracted from H4IIE rat hepatoma cells using Trizol reagent (Invitrogen Inc.) following the manufacturer instructions. RNA was quantified spectro-photo-metrically by absorption measurements at 260 nm and 280 nm using the NanoDrop system (NanoDrop Technologies Inc. Delware, USA). Quality of RNA was assessed by separation in gel-electrophoresis. […]
The synthesized cDNAs were diluted 4-fold. […] The other components of the PCR reactions were 0.5 μl of 6 μM gene specific primers (synthesized by IDT Inc. USA), 12.5 μl of Brilliant SYBR green PCR master mix (2×) (Stratagene, La Jolla, Calif.) containing green jump-start Taq ready mix. […]

PTP-1B = biological target: T2, PTP-1B (Homo sapiens, UniProt P18031); test: PTP-1B activity by PNPP hydrolysis after immunoprecipitation from treated skeletal muscle cells; type: cell-based; settings: 20 μg/ml of media; for PTP-1B inhibitory activity (decrease of PTP-1B activity): primary skeletal muscle culture from subjects with type 2 diabetes, 16 hours
T2 construct: Cell lysate was prepared and PTP-1B was immunoprecipitated with specific antibody; endogenous in cells; host or cells: primary skeletal muscle cell culture (subjects with type 2 diabetes)
T2 sequence (P18031 1-435): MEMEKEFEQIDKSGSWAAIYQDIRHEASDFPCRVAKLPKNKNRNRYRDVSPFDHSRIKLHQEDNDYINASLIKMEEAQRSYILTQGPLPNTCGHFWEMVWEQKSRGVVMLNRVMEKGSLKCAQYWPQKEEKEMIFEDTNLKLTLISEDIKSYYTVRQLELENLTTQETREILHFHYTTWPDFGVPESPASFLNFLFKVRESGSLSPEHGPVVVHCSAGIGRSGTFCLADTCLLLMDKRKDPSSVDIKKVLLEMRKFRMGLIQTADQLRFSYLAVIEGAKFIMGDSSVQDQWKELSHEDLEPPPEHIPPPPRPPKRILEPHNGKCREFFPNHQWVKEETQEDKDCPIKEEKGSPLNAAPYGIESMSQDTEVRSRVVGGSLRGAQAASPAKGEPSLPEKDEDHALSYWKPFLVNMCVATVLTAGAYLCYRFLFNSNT
Description: The activity of PTP-1B was assayed by hydrolysis of p-nitrophenol phosphate (PNPP). Skeletal muscle cells were incubated overnight (16 hours) with test substance (extract, fractions or pure compounds) at 20 μg/ml of media. Cell lysate was prepared and PTP-1B was immunoprecipitated with specific antibody (Upstate Biotechnology, Lake Placid, N.Y.). The immunoprecipitate was incubated in Phosphatase Reaction Buffer (20 mmol/L HEPES, pH 7.4, 150 mmol/L NaCl, 5 mM dithiothreitol, 1 mmol/L PNPP) for 20 minutes at 37° C. The reaction was stopped with 0.2 mol/L NaOH, and the absorbance at 410 nm was measured. The reactions were run in triplicate (Moeslein et al., The CLK family kinases, CLK1 and CLK2, phosphorylate and activate the tyrosine phosphatase, PTP-1B. J Biol Chem, 274:26697-26704 (1999)).

ALR2 inhibitory activity (in words, compared with quercitrin) [1]: shows ALR2 inhibition activity
Compound: O=C(CCc1ccc(O)cc1)c1ccc(O)cc1O [Compound 2, Davidigenin]

PTP-1B inhibitory activity (decrease of PTP-1B activity) (PTP-1B): ≤ 26%
Compound: COc1ccc(CCC(=O)c2ccc(O)cc2O)cc1 [Compound 4, 2′,4′-dihydroxy-4-methoxydihydrochalcone]
reduction of PTP-1B mRNA expression (PTP-1B mRNA): 29%
repression of dexamethazone/cAMP-induced PEPCK gene expression (PEPCK gene expression): more than 50%
repression of dexamethazone/cAMP-induced PEPCK gene expression (PEPCK gene expression; listed as DMDC): more than 50%

PTP-1B inhibitory activity (decrease of PTP-1B activity) (PTP-1B): ≤ 50%
PTP-1B inhibitory activity (in words) (PTP-1B; skeletal muscle cells): decrease PTP-1B activity
Compound: COc1cc(O)c2c(c1)O[C@H](c1ccc(O)cc1)CC2=O [Compound 6, Sakuranetin]

greater inhibition of ALR2 than that caused by quercitrin ([1]; 3.75 μg/ml): 19%
inhibition at 3.75 µg/mL ([1]; 3.75 μg/ml): 78%
Compound: O=C(/C=C/c1ccc(O)c(O)c1)OC1CC(O)(C(=O)O)CC(O)C1OC(=O)/C=C/c1ccc(O)c(O)c1 (single isomer, unassigned) [Sub-fraction 5-7, 4,5-Di-O-caffeoylquinic acid]

Compound: C[C@@H]1O[C@@H](Oc2c(-c3ccc(O)c(O)c3)oc3cc(O)cc(O)c3c2=O)[C@H](O)[C@H](O)[C@H]1O [quercitrin, reference compound]
inhibition at 3.75 µg/mL ([1]; 3.75 μg/ml): 54%

PTP-1B inhibitory activity (decrease of PTP-1B activity) (PTP-1B): ≤ 36%
Compound: COc1ccc(C(=O)CCc2ccc(O)cc2)c(O)c1 [Compound 5, 2′,4-dihydroxy-4′-methoxydihydrochalcone]

inhibition at 3.75 µg/mL ([1]; 3.75 μg/ml): 58.2%
Compound: COc1ccc(CCC(=O)c2ccc(O)cc2O)cc1 (single isomer, unassigned) [F7-9/P3, 2′,4′-dihydroxy-4-methoxydihydrochalcone]

ALR2 inhibitory activity (in words, compared with quercitrin) [1]: highest inhibitory activity
Compound: O=C(/C=C/c1ccc(O)c(O)c1)OC1CC(O)(C(=O)O)CC(O)C1OC(=O)/C=C/c1ccc(O)c(O)c1 (stereo not shown) [Compound 1, 4,5-Di-O-caffeoylquinic acid]
